In PubChem BioAssay (NCI):
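Interpolation was linear, between the two tested concentrations surrounding the appropriate level; five concentrations were tested over 48 hours in 96-well plates. GI50 = concentration required for 50% inhibition of growth. TGI denotes the concentration required for complete inhibition of growth.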

Key:
Assay in all cases: growth of human tumour cells (NCI), 48 h
EKVX NSCLC = system: EKVX NSCLC
HOP-62 NSCLC = system: HOP-62 NSCLC
KM12 colon = system: KM12 colon
MDA-MB-435 = system: MDA-MB-435
MOLT-4 leukemia = system: MOLT-4 leukemia
RXF 393 renal = system: RXF 393 renal
SNB-19 CNS = system: SNB-19 CNS
LOX IMVI melanoma = system: LOX IMVI melanoma
M14 melanoma = system: M14 melanoma
OVCAR-4 ovarian = system: OVCAR-4 ovarian

Row | SMILES | GI50 (EKVX NSCLC) | TGI (EKVX NSCLC) | GI50 (HOP-62 NSCLC) | TGI (HOP-62 NSCLC) | GI50 (KM12 colon) | TGI (KM12 colon) | GI50 (MDA-MB-435) | TGI (MDA-MB-435) | GI50 (MOLT-4 leukemia) | TGI (MOLT-4 leukemia) | GI50 (RXF 393 renal) | TGI (RXF 393 renal) | GI50 (SNB-19 CNS) | TGI (SNB-19 CNS) | GI50 (LOX IMVI melanoma) | TGI (LOX IMVI melanoma) | GI50 (M14 melanoma) | TGI (M14 melanoma) | GI50 (OVCAR-4 ovarian) | TGI (OVCAR-4 ovarian)
1 | O=C(OCc1ccccc1)N1CCN(/[N+]([O-])=N/Oc2ccc([N+](=O)[O-])cc2[N+](=O)[O-])CC1 | 16.7 µM | 35 µM | 12.3 µM | 28 µM | 8.66 µM | 24.2 µM | 4.93 µM | 19.5 µM | 4.47 µM | > 100 µM | 29.2 µM | 56.5 µM | 13.6 µM | 35.8 µM | – | – | – | – | – | –
2 | NC(=NCCCOc1ccc(Cl)cc1)Nc1ccc(Cl)cc1 | 3.87 µM | 13.3 µM | 2.53 µM | 8.01 µM | – | – | 1.76 µM | 3.37 µM | 1.66 µM | 4.66 µM | 1.86 µM | 6.97 µM | 2.46 µM | 13.6 µM | 1.6 µM | 2.98 µM | 1.67 µM | 3.39 µM | 2.3 µM | 7.9 µM
3 | C/C(=N\NC(=O)c1ccncc1)c1ccc2ccccc2c1O | – | > 100 µM | – | > 72.7 µM | – | 60.8 µM | – | > 100 µM | – | 40.3 µM | – | > 79.6 µM | – | > 100 µM | – | > 100 µM | – | 38.2 µM | – | > 65.2 µM
4 | COc1ccc(C(=O)c2ccc(OC)c(OC)c2OC)cc1 | 4.77 µM | > 100 µM | 2.39 µM | > 100 µM | 0.492 µM | 25.2 µM | 0.2 µM | 0.525 µM | 1.11 µM | > 100 µM | – | – | 4.87 µM | > 100 µM | 6.63 µM | > 100 µM | 1.32 µM | 71.2 µM | 7.08 µM | > 100 µM
5 | NS(=O)(=O)c1cc2c(cc1Cl)NC(Cc1ccccc1)NS2(=O)=O (stereo not given) | – | > 100 µM | – | > 100 µM | – | > 100 µM | – | > 100 µM | – | – | – | > 100 µM | – | > 100 µM | – | > 100 µM | – | > 100 µM | – | > 100 µM
6 | CC(=O)N1CC(Nc2ccc(OC(F)(F)F)cc2)=CC1=O | – | – | 3.51 µM | > 100 µM | 0.562 µM | 25.1 µM | 0.195 µM | 0.439 µM | 4.21 µM | > 100 µM | 1.65 µM | 5.92 µM | 3.22 µM | > 100 µM | 2.32 µM | > 100 µM | 0.535 µM | 6.71 µM | 4.84 µM | > 100 µM
7 | Cc1ccc(C2NC(=S)NC3=C2CCOc2c3ccc3ccccc23)cc1 (stereo not given) | – | – | > 100 µM | > 100 µM | 8.25 µM | > 100 µM | 2.78 µM | > 100 µM | 7.97 µM | > 100 µM | 4.83 µM | > 100 µM | > 100 µM | > 100 µM | – | – | 79 µM | > 100 µM | 29.4 µM | > 100 µM
8 | CCN(CC)c1cc(/C=C/c2ccc(OC)c(OC)c2)nc2cc(F)c(F)cc12 | – | – | 2.08 µM | 5.44 µM | > 100 µM | > 100 µM | > 100 µM | > 100 µM | 14.2 µM | 33.6 µM | 1.8 µM | 4.01 µM | 2.34 µM | 7.09 µM | 7.24 µM | 37.7 µM | 26.3 µM | > 100 µM | 27 µM | > 100 µM
9 | CS(=O)CCCCCN=C=S (stereo not given) | 10.4 µM | 24.8 µM | 12.5 µM | 29.4 µM | 3.33 µM | 13 µM | 3.57 µM | 15.8 µM | – | – | 3.37 µM | 9.45 µM | 16.1 µM | 32.1 µM | 0.782 µM | 10.3 µM | 3.3 µM | 14.6 µM | 5.11 µM | 22.8 µM
10 | Cc1ccc(NC(=O)NC(=O)c2ccc([N+](=O)[O-])cc2[N+](=O)[O-])cc1Oc1ncc(Cl)cn1 | – | – | – | 12.5 µM | – | 6.83 µM | – | 0.542 µM | – | 49.8 µM | – | – | – | 21.4 µM | – | 11.9 µM | – | 11.3 µM | – | 26 µM
11 | COc1cccc(C2C(C#N)=C(N)Oc3cc(N)ccc32)c1 (stereo not given) | 0.854 µM | > 100 µM | 0.692 µM | > 100 µM | 0.442 µM | 45.9 µM | 0.138 µM | 0.672 µM | 0.563 µM | > 52.3 µM | – | – | – | > 100 µM | 0.506 µM | > 100 µM | 0.341 µM | > 100 µM | 5.14 µM | > 100 µM
12 | CN(C)c1ccc(C(=C2C=CC(=[N+](C)C)C=C2)c2ccc(N(C)C)cc2)cc1 (tested in a mixture with another compound) | 0.0725 µM | 6.45 µM | 0.0446 µM | 1.29 µM | 0.0379 µM | 0.172 µM | 0.0626 µM | 0.676 µM | 0.293 µM | 5.67 µM | 0.108 µM | 0.871 µM | – | 1.56 µM | – | – | 0.088 µM | – | 0.183 µM | 1.32 µM
13 | COc1ccc(/C(Cl)=C(\C=O)c2ccc([N+](=O)[O-])cc2)cc1OC | – | > 59.7 µM | – | > 100 µM | – | 94.4 µM | – | 13.5 µM | – | > 27.4 µM | – | 19.2 µM | – | > 100 µM | – | 12.4 µM | – | 43.5 µM | – | –
14 | CCCCCCCC/C=C/CCCCCCCC1=NCC[N+]1(CCO)CCO | 4.71 µM | 26.4 µM | 6.36 µM | 19.8 µM | 1.87 µM | 3.61 µM | 2.35 µM | 7.95 µM | 2.23 µM | 6.58 µM | 1.73 µM | 4.2 µM | 4.49 µM | 25.2 µM | – | – | 2.26 µM | 5.77 µM | 3.87 µM | 14.9 µM
15 | Cc1cc2cc3cc(C)c(N(C)C)cc3nc2cc1N(C)C | – | – | 5.08 µM | 19.9 µM | 1.66 µM | 6.22 µM | 2.77 µM | 11.8 µM | 3.29 µM | > 100 µM | 7.14 µM | 31.2 µM | 3.56 µM | > 100 µM | 3.33 µM | 78 µM | 3.76 µM | 18.4 µM | 2.25 µM | 19.5 µM
